Experimental data published in US20240150293A1, “SPIROCYCLOHEXANE DERIVATIVES, PHARMACEUTICAL COMPOSITIONS CONTAINING THEM AND THEIR USES AS ANTI-APOPTOTIC INHIBITORS” (LES LABORATOIRES SERVIER, priority 2021, published 2024).
Like-named read-outs stand apart in the source and are kept apart here.

What was measured:
[1] = tested on: H929 multiple myeloma tumor line; test: In vitro cytotoxicity, MTT assay (Example B, Method A); type: cell-based; settings: H929 cells, 48 hours exposure, read-out: C50
Method: The cytotoxicity studies were carried out on the H929 multiple myeloma tumor line.
The cells are distributed onto microplates and exposed to the test compounds for 48 hours. The cell viability is then quantified by a colorimetric assay, the Microculture Tetrazolium Assay (Carmichael et al, Cancer Res. 1987, 47, 939-942).
The results are expressed in C50 which means concentration corresponding to […] of effect/inhibition.

[2] = target: Cy5-labelled Mcl1 (amino acids 171-321) C286S protein (UniProtKB Q07820) (Homo sapiens (Human), UniProt Q07820, C286S); test: Inhibition of Mcl-1 by the fluorescence quenching assay (Example A, Method B); type: binding
Method in brief: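 Eleven-point compound series incubated 2 h at room temperature with 1 nM Cy5-tagged protein and quencher-labelled PUMA peptide at 10, 20 or 400 nM in HEPES/NaCl/Tween 20, pH 7.4, 5% DMSO. IC50 for 50% fluorescence increase by 4-parameter fit, then Ki derived (complete cKi or estimated eKi).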

Chain of Cy5-labelled Mcl1 (amino acids 171-321) C286S protein (Q07820 171-321 C286S): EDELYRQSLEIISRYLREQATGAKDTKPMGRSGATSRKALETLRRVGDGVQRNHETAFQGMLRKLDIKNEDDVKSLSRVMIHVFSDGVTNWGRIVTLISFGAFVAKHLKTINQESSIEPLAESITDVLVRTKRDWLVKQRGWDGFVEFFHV

Row | Compound | IC50 [1] [nM] | Ki [2] [nM] | IC50 ([1]; Homo sapiens, NCI-H929, 48 h) [nM] | inhibition at 10 µM ([2]; @ 10 μM, read-out: Mcl-1 inhibition, % at a single concentration) [%]
1 | CC(CC1Cc2ccccc2[C@]12CC[C@@](Nc1cccc(Cl)c1)(C(=O)O)CC2)C1CCC(=O)CC1 (single isomer, unassigned) [Example 573, (1r,4r)-4-(3-chloroanilino)-2′-[2-(4-oxocyclohexyl)propyl]-2′,3′-dihydrospiro[cyclohexane-1,1′-indene]-4-carboxylic acid] | 30000 | 806 |  | 
2 | O=C(O)[C@]1(Nc2cccc(Cl)c2)CC[C@@]2(CC1)c1ccccc1CC2CC(COc1ccnc2c1CCC2)COc1ccnc2c1CCC2 (single isomer, unassigned) [Example 497, (1r,4r)-4-(3-chloroanilino)-2′-(3-[(6,7-dihydro-5H-cyclopenta[b]pyridin-4-yl)oxy]-2-{[(6,7-dihydro-5H-cyclopenta[b]pyridin-4-yl)oxy]methyl}propyl)-2′,3′-dihydrospiro[cyclohexane-1,1′-indene]-4-carboxylic acid] | 1220 | 1.34 |  | 
3 | Cc1cc2c(cc1C)[C@]1(CC[C@@](Nc3cccc(Cl)c3)(C(=O)O)CC1)[C@@H](C[C@@H](C)COc1ccnc3ccsc13)C2 [Example 733, (1r,2′S,4S)-4-(3-chloroanilino)-5′,6′-dimethyl-2′-{(2R)-2-methyl-3-[(thieno[3,2-b]pyridin-7-yl)oxy]propyl}-2′,3′-dihydrospiro[cyclohexane-1,1′-indene]-4-carboxylic acid] |  | 1.52 | 211 | 
4 | C[C@@H](COc1ccnc2c1CCCC2C(F)F)C[C@H]1Cc2ccccc2[C@]12CC[C@@](Nc1cccc(Cl)c1)(C(=O)O)CC2 (single isomer, unassigned) [Example 682] |  | 46.6 | 5180 | 
5 | C[C@@H](COc1ccnc2c1[C@H](C)CCC2)C[C@@H]1Cc2ccccc2[C@]12CC[C@@](Nc1ccc(F)c(Cl)c1)(C(=O)O)CC2 [Example 703, (1r,2′R,4R)-4-(3-chloro-4-fluoroanilino)-2′-[(2R)-2-methyl-3-{[(5R)-5-methyl-5,6,7,8-tetrahydroquinolin-4-yl]oxy}propyl]-2′,3′-dihydrospiro[cyclohexane-1,1′-indene]-4-carboxylic acid] |  | 1.27 | 169 | 
6 | CC(C)(COc1ccnc2sccc12)CC1Cc2ccccc2C12CCC(Nc1cccc(Cl)c1)(C(=O)O)CC2 (single isomer, unassigned) [Example 622, (1r,4r)-4-(3-chloroanilino)-2′-{2,2-dimethyl-3-[(thieno[2,3-b]pyridin-4-yl)oxy]propyl}-2′,3′-dihydrospiro[cyclohexane-1,1′-indene]-4-carboxylic acid] |  | 44.6 | 17100 | 
7 | C[C@@H](COc1ccnc2c1[C@H](C)CC[C@H]2O)C[C@H]1Cc2ccccc2[C@]12CC[C@@](Nc1cccc(Cl)c1)(C(=O)O)CC2 [Example 676, (1r,2′S,4S)-4-(3-chloroanilino)-2′-[(2R)-3-{[(5R,8R)-8-hydroxy-5-methyl-5,6,7,8-tetrahydroquinolin-4-yl]oxy}-2-methylpropyl]-2′,3′-dihydrospiro[cyclohexane-1,1′-indene]-4-carboxylic acid] | 65.6 | 0.418 |  | 
8 | C[C@@H](COc1ccnc2c1[C@H](C)CCC2)C[C@H]1Cc2ccc(C=O)cc2[C@]12CC[C@@](Nc1cccc(Cl)c1)(C(=O)O)CC2 [Example 867, (1r,2′S,4S)-4-(3-chloroanilino)-6′-formyl-2′-[(2R)-2-methyl-3-{[(5R)-5-methyl-5,6,7,8-tetrahydroquinolin-4-yl]oxy}propyl]-2′,3′-dihydrospiro[cyclohexane-1,1′-indene]-4-carboxylic acid] |  | 0.0988 | 73 | 
9 | CC(=O)c1cc2c(cc1F)C=C(C[C@@H](C)COc1ccnc3c1[C@@H](C)CCC3)[C@]21CC[C@](Nc2cccc(Cl)c2)(C(=O)O)CC1 [Example 873, (1r,4R)-6′-acetyl-4-(3-chloroanilino)-5′-fluoro-2′-[(2R)-2-methyl-3-{[(5S)-5-methyl-5,6,7,8-tetrahydroquinolin-4-yl]oxy}propyl]spiro[cyclohexane-1,1′-indene]-4-carboxylic acid] |  | 4.17 | 341 | 
10 | Cc1ccc(N[C@]2(C(=O)O)CC[C@]3(CC2)c2ccccc2C[C@@H]3C[C@@H](C)COc2ccnc3c2[C@H](C)CCC3)cc1Cl [Example 709, (1r,2′S,4S)-4-(3-chloro-4-methylanilino)-2′-[(2R)-2-methyl-3-{[(5R)-5-methyl-5,6,7,8-tetrahydroquinolin-4-yl]oxy}propyl]-2′,3′-dihydrospiro[cyclohexane-1,1′-indene]-4-carboxylic acid] |  | 6.4 | 1010 | 
11 | C[C@@H](COc1ccnc2c1[C@H](C)CCC2)C[C@@H]1Cc2ccc(F)cc2[C@]12CC[C@@](Nc1cccc(Cl)c1)(C(=O)O)CC2 [Example 766, (1r,2′R,4R)-4-(3-chloroanilino)-6′-fluoro-2′-[(2R)-2-methyl-3-{[(5R)-5-methyl-5,6,7,8-tetrahydroquinolin-4-yl]oxy}propyl]-2′,3′-dihydrospiro[cyclohexane-1,1′-indene]-4-carboxylic acid] |  | 2.3 | 384 | 
12 | C[C@@H](COc1ccnc2c1[C@H](C)CCC2)C[C@H]1Cc2ccccc2[C@]12CC[C@@](Sc1cccc(Cl)c1)(C(=O)O)CC2 [Example 718, (1r,2′S,4S)-4-[(3-chlorophenyl)sulfanyl]-2′-[(2R)-2-methyl-3-{[(5R)-5-methyl-5,6,7,8-tetrahydroquinolin-4-yl]oxy}propyl]-2′,3′-dihydrospiro[cyclohexane-1,1′-indene]-4-carboxylic acid] |  |  | 15900 | 14.8
13 | C[C@@H](COc1ccnc2c1[C@H](C)CC[C@H]2C)C[C@H]1Cc2ccccc2[C@]12CC[C@@](Nc1cccc(Cl)c1)(C(=O)O)CC2 [Example 660, (1r,2′S,4S)-4-(3-chloroanilino)-2′-[(2R)-3-{[(5R,8R)-5,8-dimethyl-5,6,7,8-tetrahydroquinolin-4-yl]oxy}-2-methylpropyl]-2′,3′-dihydrospiro[cyclohexane-1,1′-indene]-4-carboxylic acid] |  | 1.39 | 62 | 
14 | C[C@@H](COc1ncnc2c1[C@H](C)CCC2)C[C@H]1Cc2ccccc2[C@]12CC[C@@](Nc1cccc(Cl)c1)(C(=O)O)CC2 [Example 638, (1r,2′S,4S)-4-(3-chloroanilino)-2′-[(2R)-2-methyl-3-{[(5R)-5-methyl-5,6,7,8-tetrahydroquinazolin-4-yl]oxy}propyl]-2′,3′-dihydrospiro[cyclohexane-1,1′-indene]-4-carboxylic acid] |  | 3.76 | 373 | 
15 | Cc1cc2c(cc1C)[C@]1(CC[C@@](Nc3cccc(Cl)c3)(C(=O)O)CC1)[C@H](C[C@@H](C)COc1ccnc3ccsc13)C2 [Example 734, (1r,2′R,4R)-4-(3-chloroanilino)-5′,6′-dimethyl-2′-{(2R)-2-methyl-3-[(thieno[3,2-b]pyridin-7-yl)oxy]propyl}-2′,3′-dihydrospiro[cyclohexane-1,1′-indene]-4-carboxylic acid] |  | 1.98 | 194 | 
16 | CC1CCCc2nccc(NC[C@H](C)C[C@H]3Cc4ccccc4[C@]34CC[C@@](Nc3cccc(Cl)c3)(C(=O)O)CC4)c21 (stereo partly drawn) [Example 655, (1r,2′S,4S)-4-(3-chloroanilino)-2′-{(2R)-2-methyl-3-[(5-methyl-5,6,7,8-tetrahydroquinolin-4-yl)amino]propyl}-2′,3′-dihydrospiro[cyclohexane-1,1′-indene]-4-carboxylic acid] |  | 50.9 | 8420 | 
17 | C[C@@H](COc1ccnc2c1[C@H](C)CCC2)C[C@H]1Cc2ccc(F)cc2[C@]12CC[C@@](Nc1cccc(Cl)c1)(C(=O)O)CC2 [Example 765, (1r,2′S,4S)-4-(3-chloroanilino)-6′-fluoro-2′-[(2R)-2-methyl-3-{[(5R)-5-methyl-5,6,7,8-tetrahydroquinolin-4-yl]oxy}propyl]-2′,3′-dihydrospiro[cyclohexane-1,1′-indene]-4-carboxylic acid] |  | 0.661 | 210 | 
18 | C[C@@H](COc1ccnc2c1[C@H](C)CC[C@H]2C)C[C@H]1Cc2cc(F)ccc2[C@]12CC[C@@](Nc1cccc(Cl)c1)(C(=O)O)CC2 [Example 773, (1r,2′S,4S)-4-(3-chloroanilino)-2′-[(2R)-3-{[(5R,8R)-5,8-dimethyl-5,6,7,8-tetrahydroquinolin-4-yl]oxy}-2-methylpropyl]-5′-fluoro-2′,3′-dihydrospiro[cyclohexane-1,1′-indene]-4-carboxylic acid] |  | 0.279 | 32.2 | 
19 | CC(=O)c1ccc2c(c1)[C@]1(CC[C@@](Nc3cccc(Cl)c3)(C(=O)O)CC1)[C@@H](C[C@@H](C)COc1ccnc3c1[C@H](C)CCC3)C2 [Example 858, (1r,2′S,4S)-6′-acetyl-4-(3-chloroanilino)-2′-[(2R)-2-methyl-3-{[(5R)-5-methyl-5,6,7,8-tetrahydroquinolin-4-yl]oxy}propyl]-2′,3′-dihydrospiro[cyclohexane-1,1′-indene]-4-carboxylic acid] |  | 0.0699 | 50.6 | 
20 | C[C@@H](COc1ccnc2c1[C@H](C)CCC2)CC1=Cc2cc(Cl)ccc2[C@]12CC[C@@](Nc1cccc(Cl)c1)(C(=O)O)CC2 [Example 777, (1r,4R)-5′-chloro-4-(3-chloroanilino)-2′-[(2R)-2-methyl-3-{[(5R)-5-methyl-5,6,7,8-tetrahydroquinolin-4-yl]oxy}propyl]spiro[cyclohexane-1,1′-indene]-4-carboxylic acid] |  | 0.725 | 175 | 
